Here are results for 25 molecules from patent US11351268B2, “FGF21 C-terminal peptide optimization” (INDIANA UNIVERSITY RESEARCH AND TECHNOLOGY CORPORATION, priority 2016, dated 2022).

No end group written: not given here.

One assay concerns the target T1, Klotho β (KLB) (Homo sapiens, UniProt Q86Z14).
T1 construct: expressed in transfected cells; host or cells: HEK 293T (ATCC), pooled Zeocin-selected cells stably expressing hKLB from pcDNA3.1(+)
T1 sequence (Q86Z14 1-1044): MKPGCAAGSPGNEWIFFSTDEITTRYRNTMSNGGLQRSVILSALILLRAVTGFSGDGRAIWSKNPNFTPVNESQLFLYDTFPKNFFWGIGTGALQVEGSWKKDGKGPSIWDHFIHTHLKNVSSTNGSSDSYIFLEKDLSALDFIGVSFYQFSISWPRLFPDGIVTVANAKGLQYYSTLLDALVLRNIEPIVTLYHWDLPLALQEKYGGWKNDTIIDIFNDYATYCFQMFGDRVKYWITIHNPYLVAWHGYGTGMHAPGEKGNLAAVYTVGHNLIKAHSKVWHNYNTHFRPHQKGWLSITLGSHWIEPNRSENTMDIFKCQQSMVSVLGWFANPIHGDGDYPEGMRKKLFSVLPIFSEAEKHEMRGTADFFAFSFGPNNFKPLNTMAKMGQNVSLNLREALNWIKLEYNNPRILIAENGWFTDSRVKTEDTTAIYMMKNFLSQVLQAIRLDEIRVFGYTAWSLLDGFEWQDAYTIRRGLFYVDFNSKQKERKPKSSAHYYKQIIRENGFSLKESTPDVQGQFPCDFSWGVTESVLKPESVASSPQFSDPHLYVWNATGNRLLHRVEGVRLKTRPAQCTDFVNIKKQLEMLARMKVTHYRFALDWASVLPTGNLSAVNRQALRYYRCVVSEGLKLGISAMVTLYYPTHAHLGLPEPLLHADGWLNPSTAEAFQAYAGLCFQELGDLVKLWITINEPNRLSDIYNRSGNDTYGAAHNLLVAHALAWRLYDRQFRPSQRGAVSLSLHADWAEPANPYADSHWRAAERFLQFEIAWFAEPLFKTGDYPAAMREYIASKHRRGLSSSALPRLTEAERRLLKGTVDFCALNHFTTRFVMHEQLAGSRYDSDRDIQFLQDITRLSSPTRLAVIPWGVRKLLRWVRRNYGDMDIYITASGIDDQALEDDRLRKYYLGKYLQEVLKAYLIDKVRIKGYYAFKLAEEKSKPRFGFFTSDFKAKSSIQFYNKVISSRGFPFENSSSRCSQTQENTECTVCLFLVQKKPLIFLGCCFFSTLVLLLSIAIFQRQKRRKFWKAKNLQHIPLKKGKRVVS
The assay is described as follows: cell-based. It is filed as cell-based. To be noted: for Emax: Table 1, native sequence = 100% response, read-out: % max activity. As to the method: (§1) Cells were cultured in 10% Fetal Bovine Serum containing DMEM High glucose GLUTAMAX® at 37 C, 95% humidity, 5% CO2. For generating the cell line with stable expression, human KLB gene was synthesized by Genscript and subcloned into pcDNA3.1(+) with ZEOCIN® resistance vector (INVITROGEN®) by NheI and NotI restriction enzyme sites. HEK 293T cells were obtained from ATCC and were transiently transfected at 80% confluency using Lipofectamine 3000 (Invitrogen). Selection for KLB-expressing cells was initiated 48 hours post-transfection in the growth media containing 100 μg/ml of ZEOCIN® (Gibco) and continued for 4 weeks with fresh media added every third day. Human KLB expression in pooled cells was confirmed by Western blot and a functional FGF21 MAPK phosphorylation assay.
(§2) 293 HEK cells expressing hKLB were plated to 90% confluency in 96 well plates coated with poly-D-Lysine. Cells were serum starved for three hours in 0.1% BSA containing media prior to stimulation with protein and/or an antagonist peptide for ten minutes at 37° C. The cell lysate was used for the detection of phospho-Erk1/2 levels by AlphaSureFire kit using the prescribed protocol. The degree of biochemical activation was recorded and analyzed using Origin software by logistic curve fitting. Tests at each concentration were done in triplicates, and the standard deviation is as shown in the graphs. The calculation of maximal activities was done keeping the FGF21 157-181 or FGF19 169-194 peptide activity as standard. The difference between the Erk1/2 phosphorylation signal for the highest (10 μM) and the lowest (0 μM) tested dose for native peptide was considered as 100% and accordingly all the other values were assigned.

A further assay deals with FGF21 receptor. In words: Erk1/2 phosphorylation assay: agonist activity in 293T HEK hKLB cells. The format is cell-based, human. The following applies: for IC50: full length FGF21 analogs, tested in triplicate; for EC50: read-out: EC-50. As to the method:
as §1, §2

[1] abbreviates: Table 6, derivatives of SEQ ID NO: 180.
Setting [2] is: Table 1, alanine scan of FGF21 25mer, antagonism of native FGF21 response.
The mark [3] stands for this setting: Table 2(A), FGF21 157-181 alanine mutants, ≥95% maximal activity.
[4] abbreviates: Table 5, FGF19/FGF21 chimeric peptides.
Setting [5] is: FIGS. 9A/9B, full length proteins, Erk1/2 phosphorylation.

Consider “PPDVGSSDPASMVGPSQGRSPSYAS-NH2 (C-terminus assumed) [Peptide A10, PPDVGSSDPASMVGPSQGRSPSYAS]”, for which, on Klotho β (KLB), the Emax came out at 76%. Broadly, the IC50 is the concentration needed to halve the response being measured. Higher therefore signals a need for much substance. “PPDVGSSDPFGLVGPSQGRSPSFEA-NH2 (C-terminus assumed) [Peptide 0486]” returned an IC50 against Klotho β (KLB) (setting [1]) of 4.7 ± 1.6 nM.

In the case of “PPDVGSSDPLAMVGPSQGRSPSYAS-NH2 (C-terminus assumed) [Peptide A11, PPDVGSSDPLAMVGPSQGRSPSYAS]”, the IC50 came to 102 nM against Klotho β (KLB) (setting [2]) and 150 nM against Klotho β (KLB) (setting [3]). For the same molecule, the Emax on Klotho β (KLB) is 98%. With “PPDVGSSDPLSMAGPSQGRSPSYAS-NH2 (C-terminus assumed) [Peptide A13, PPDVGSSDPLSMAGPSQGRSPSYAS]”, the Emax at Klotho β (KLB) is 87.9%. For “PPDVGSSDPLSMVAPSQGRSPSYAS-NH2 (C-terminus assumed) [Peptide A14, PPDVGSSDPLSMVAPSQGRSPSYAS]”, on Klotho β (KLB), the “% max activity” value is 97.7%. Moreover, half-maximal inhibition against Klotho β (KLB) (setting [3]) (IC50) was put at 130 nM. For “PPDVGSSDPLSMVGASQGRSPSYAS-NH2 (C-terminus assumed) [Peptide A15, PPDVGSSDPLSMVGASQGRSPSYAS]”, the Emax on Klotho β (KLB) came to 93.9%. Further, it took 120 nM to reach half-maximal inhibition at Klotho β (KLB) (setting [3]) (IC50). Consider “PPDVGSSDPLSMVGPAQGRSPSYAS-NH2 (C-terminus assumed) [Peptide A16, PPDVGSSDPLSMVGPAQGRSPSYAS]”, for which the IC50 against Klotho β (KLB) (setting [2]) was 120 nM. Further, the Emax on Klotho β (KLB) was 101%. With “PPDVGSSDPLSMVGPSAGRSPSYAS-NH2 (C-terminus assumed) [Peptide A17, PPDVGSSDPLSMVGPSAGRSPSYAS]”, at Klotho β (KLB), the “% max activity” value came to 99.7%. The values for the IC50 against Klotho β (KLB) (setting [2]) and against Klotho β (KLB) (setting [3]) were 139 nM and 130 nM, respectively. On the same counts, the results for “PPDVGSSDPLSMVGPSQARSPSYAS-NH2 (C-terminus assumed) [Peptide A18, PPDVGSSDPLSMVGPSQARSPSYAS]” are 102.9%, 139 nM and 150 nM. The molecule “PPDVGSSDPLSMVGPSQGASPSYAS-NH2 (C-terminus assumed) [Peptide A19, PPDVGSSDPLSMVGPSQGASPSYAS]” came in with a concentration for half-maximal inhibition (IC50) against Klotho β (KLB) (setting [2]) of 102 nM. In addition, at Klotho β (KLB), the Emax is 100%.

For the molecule “PPDVGSSDPLSMVGPSQGRAPSYAS-NH2 (C-terminus assumed) [Peptide A20, PPDVGSSDPLSMVGPSQGRAPSYAS]”, at Klotho β (KLB), the Emax stood at 73.5%. On the same count and under the same terms, with “PPDVGSSDPLSMVGPSQGRSASYAS-NH2 (C-terminus assumed) [Peptide A21, PPDVGSSDPLSMVGPSQGRSASYAS]” the figure was 70.5%. On the same count and under the same terms, with “PPDVGSSDPLSMVGPSQGRSPAYAS-NH2 (C-terminus assumed) [Peptide A22, PPDVGSSDPLSMVGPSQGRSPAYAS]” the figure was 78.5%. Turning to “PPDVGSSDPLSMVGPSQGRSPSAAS-NH2 (C-terminus assumed) [Peptide A23, PPDVGSSDPLSMVGPSQGRSPSAAS]”, the “% max activity” value at Klotho β (KLB) was found to be 73.6%. On the same count and under the same terms, the value for “PPDVGSSDPLSMVGPSQGRSPSYAA-NH2 (C-terminus assumed) [Peptide A25, PPDVGSSDPLSMVGPSQGRSPSYAA]” was 99.0%. On to “PPDVGSSDPLSMVGPSQGRSPSYAS-NH2 [Peptide C25, PPDVGSSDPLSMVGPSQGRSPSYAS, reference compound]”, for which, on Klotho β (KLB), the “% max activity” value is recorded as 100.0%. In addition, the half-inhibitory concentration (IC50) at Klotho β (KLB) (FIG. 8B, FGF21 and FGF19 C-terminal peptides) turned out to be 40 nM; on Klotho β (KLB) (setting [4]), 116 ± 4 nM. For “PPDVGSSDPLSMVTGLEAVRSPSFEA-NH2 (C-terminus assumed) [Peptide 0435]”, at Klotho β (KLB) (setting [4]), the IC50 is 65.1 ± 4.8 nM. With “PPDVLSMDPFGLVGPSQGRSPSFEA-NH2 (C-terminus assumed) [Peptide 0481]”, at Klotho β (KLB) (setting [1]), the IC50 turned out to be 2.6 ± 0.8 nM. The same measure, in the same setting: the value for “PPDVSSMDPFGLVGPSQGRSPSFEA-NH2 (C-terminus assumed) [Peptide 0482]” was 3 ± 1.3 nM.

B1: FGF21 481K: analog of FGF21 481A where the C-terminal alanine is replaced with a lysine (protein)
chain: HPIPDSSPLLQFGGQVRQRYLYTDDAQQTECHLEIREDGTVGCAADQSPESLLQLKALKPGVIQILGVKTSRFLCQRPDGALYGSLHFDPEACSFREDLKEDGYNVYQSEAHGLPLHLPGDKSPHRKPAPRGPARFLPLPGLPPALPEPPGILAPQPPDVLSMDPFGLVGPSQGRSPSFEK
B1: in the assay on FGF21 receptor, the concentration for half-maximal inhibition (IC50) was 0.56 ± 0.06 nM.

B2: FGF21 481A: modified FGF21 N-terminus fused to peptide 0481 (protein, listed as Homo sapiens)
chain: HPIPDSSPLLQFGGQVRQRYLYTDDAQQTECHLEIREDGTVGCAADQSPESLLQLKALKPGVIQILGVKTSRFLCQRPDGALYGSLHFDPEACSFREDLKEDGYNVYQSEAHGLPLHLPGDKSPHRKPAPRGPARFLPLPGLPPALPEPPGILAPQPPDVLSMDPFGLVGPSQGRSPSFEA
Regarding B2, the concentration for half-maximal inhibition (IC50) with FGF21 receptor turned out to be 0.19 ± 0.08 nM.

B3: FGF21 482K: analog of FGF21 482A where the C-terminal alanine is replaced with a lysine (protein)
chain: HPIPDSSPLLQFGGQVRQRYLYTDDAQQTECHLEIREDGTVGCAADQSPESLLQLKALKPGVIQILGVKTSRFLCQRPDGALYGSLHFDPEACSFREDLKEDGYNVYQSEAHGLPLHLPGDKSPHRKPAPRGPARFLPLPGLPPALPEPPGILAPQPPDVSSMDPFGLVGPSQGRSPSFEK
For the molecule B3, the IC50 with FGF21 receptor was determined as 1.81 ± 0.18 nM.

B4: FGF21 D164A: full length FGF21 with alanine at position 164 (protein)
chain: HPIPDSSPLLQFGGQVRQRYLYTDDAQQTEAHLEIREDGTVGGAADQSPESLLQLKALKPGVIQILGVKTSRFLCQRPDGALYGSLHFDPEACSFRELLLEDGYNVYQSEAHGLPLHLPGNKSPHRDPAPRGPARFLPLPGLPPALPEPPGILAPQPPDVGSSAPLSMVGPSQGRSPSYAS
For B4, the EC-50 entry in the assay on FGF21 receptor (setting [5]) was “inactive”.

B5: FGF21 P171A: full length FGF21 with alanine at position 171 (protein)
chain: HPIPDSSPLLQFGGQVRQRYLYTDDAQQTEAHLEIREDGTVGGAADQSPESLLQLKALKPGVIQILGVKTSRFLCQRPDGALYGSLHFDPEACSFRELLLEDGYNVYQSEAHGLPLHLPGNKSPHRDPAPRGPARFLPLPGLPPALPEPPGILAPQPPDVGSSDPLSMVGASQGRSPSYAS
Turning to B5, the EC50 in the assay on FGF21 receptor (setting [5]) is 4.5 nM.

B6: FGF21-19 K194A: chimeric analog: core of FGF21 1-156 and an extension of the FGF19 169-194 K194A peptide (protein)
chain: HPIPDSSPLLQFGGQVRQRYLYTDDAQQTEAHLEIREDGTVGGAADQSPESLLQLKALKPGVIQILGVKTSRFLCQRPDGALYGSLHFDPEACSFRELLLEDGYNVYQSEAHGLPLHLPGNKSPHRDPAPRGPARFLPLPGLPPALPEPPGILAPQPLETDSMDPFGLVTGLEAVRSPSFEA
As to B6, in the assay with FGF21 receptor (setting [5]), the “% maximal activity” value was 84% and the EC50 was 0.5 nM. For the same molecule, in the assay with FGF21 receptor (agonist activity of chimeric analog), the “fold more potent than native FGF21” value is recorded as “approximately 5 fold”.
